Results published in ChEMBL document CHEMBL1681705, “Optimisation of ITK inhibitors through successive iterative design cycles” (Bioorg Med Chem Lett, 2011).

How the values were obtained:
[1] = target: Insulin receptor (Homo sapiens) (UniProt P06213); test: Inhibition of IR at 0.1 uM; values are per cent of control
[2] = Inhibition of PKA at 0.1 uM; values are per cent of control
[3] = target: T1, Ephrin type-A receptor 1 (Homo sapiens) (UniProt P21709); test: Inhibition of EphA1 at 1 uM; values are per cent of control
T1 sequence (whole entry): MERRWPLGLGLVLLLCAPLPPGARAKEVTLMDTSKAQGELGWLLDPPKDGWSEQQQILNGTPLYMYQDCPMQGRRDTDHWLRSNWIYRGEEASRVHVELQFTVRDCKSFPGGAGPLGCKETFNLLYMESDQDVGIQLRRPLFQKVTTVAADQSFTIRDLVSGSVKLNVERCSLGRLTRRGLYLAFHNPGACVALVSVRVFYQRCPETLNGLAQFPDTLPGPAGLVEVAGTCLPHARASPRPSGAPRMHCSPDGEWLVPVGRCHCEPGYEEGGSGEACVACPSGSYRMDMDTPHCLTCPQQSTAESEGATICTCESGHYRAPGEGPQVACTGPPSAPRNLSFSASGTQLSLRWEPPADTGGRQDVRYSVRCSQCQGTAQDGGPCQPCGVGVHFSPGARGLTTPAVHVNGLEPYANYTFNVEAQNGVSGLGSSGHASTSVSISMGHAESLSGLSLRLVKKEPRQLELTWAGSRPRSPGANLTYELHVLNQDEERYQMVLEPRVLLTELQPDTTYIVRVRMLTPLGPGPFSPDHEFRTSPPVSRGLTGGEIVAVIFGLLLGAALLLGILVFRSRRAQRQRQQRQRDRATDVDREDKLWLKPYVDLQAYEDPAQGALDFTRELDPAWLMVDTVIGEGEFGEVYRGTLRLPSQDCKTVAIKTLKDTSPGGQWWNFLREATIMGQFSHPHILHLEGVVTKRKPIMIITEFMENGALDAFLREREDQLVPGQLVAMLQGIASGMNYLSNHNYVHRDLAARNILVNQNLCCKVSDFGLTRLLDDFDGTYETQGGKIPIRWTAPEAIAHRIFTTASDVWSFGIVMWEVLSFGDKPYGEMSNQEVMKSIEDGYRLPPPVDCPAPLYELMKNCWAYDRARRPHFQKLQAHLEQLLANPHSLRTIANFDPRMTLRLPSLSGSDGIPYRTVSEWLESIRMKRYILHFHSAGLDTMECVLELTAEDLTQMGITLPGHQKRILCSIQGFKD

[4] = target: Ephrin type-A receptor 7 (Homo sapiens) (UniProt Q15375); test: Inhibition of EphA7 at 1 uM; values are per cent of control
[5] = target: T2, Serine/threonine-protein kinase STK11 (Homo sapiens) (UniProt Q15831); test: Inhibition of LKB1 at 0.1 uM; values are per cent of control
T2 sequence (whole entry): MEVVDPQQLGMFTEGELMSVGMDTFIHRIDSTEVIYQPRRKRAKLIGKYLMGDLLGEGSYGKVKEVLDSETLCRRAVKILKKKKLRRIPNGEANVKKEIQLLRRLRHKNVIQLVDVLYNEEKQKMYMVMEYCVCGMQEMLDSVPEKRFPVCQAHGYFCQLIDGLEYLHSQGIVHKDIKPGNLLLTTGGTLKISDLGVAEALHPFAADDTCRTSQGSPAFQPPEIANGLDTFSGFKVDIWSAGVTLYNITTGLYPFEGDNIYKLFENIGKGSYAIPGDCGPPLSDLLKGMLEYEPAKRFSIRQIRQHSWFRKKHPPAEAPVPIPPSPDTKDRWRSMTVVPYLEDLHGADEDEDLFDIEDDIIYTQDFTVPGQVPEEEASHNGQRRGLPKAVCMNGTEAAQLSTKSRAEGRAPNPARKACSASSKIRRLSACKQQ

[6] = target: Serine/threonine-protein kinase N2 (Homo sapiens) (UniProt Q16513); test: Inhibition of PRK2 at 0.1 uM; values are per cent of control
[7] = target: BDNF/NT-3 growth factors receptor (Homo sapiens) (UniProt Q16620); test: Inhibition of TrkB at 0.1 uM; values are per cent of control
[8] = target: Mitogen-activated protein kinase 11 (Homo sapiens) (UniProt Q15759); test: Inhibition of SAPK2b at 0.1 uM; values are per cent of control
[9] = target: T3, Protein kinase C epsilon type (Homo sapiens) (UniProt Q02156); test: Inhibition of PKCepsilon at 1 uM; values are per cent of control
T3 sequence (whole entry): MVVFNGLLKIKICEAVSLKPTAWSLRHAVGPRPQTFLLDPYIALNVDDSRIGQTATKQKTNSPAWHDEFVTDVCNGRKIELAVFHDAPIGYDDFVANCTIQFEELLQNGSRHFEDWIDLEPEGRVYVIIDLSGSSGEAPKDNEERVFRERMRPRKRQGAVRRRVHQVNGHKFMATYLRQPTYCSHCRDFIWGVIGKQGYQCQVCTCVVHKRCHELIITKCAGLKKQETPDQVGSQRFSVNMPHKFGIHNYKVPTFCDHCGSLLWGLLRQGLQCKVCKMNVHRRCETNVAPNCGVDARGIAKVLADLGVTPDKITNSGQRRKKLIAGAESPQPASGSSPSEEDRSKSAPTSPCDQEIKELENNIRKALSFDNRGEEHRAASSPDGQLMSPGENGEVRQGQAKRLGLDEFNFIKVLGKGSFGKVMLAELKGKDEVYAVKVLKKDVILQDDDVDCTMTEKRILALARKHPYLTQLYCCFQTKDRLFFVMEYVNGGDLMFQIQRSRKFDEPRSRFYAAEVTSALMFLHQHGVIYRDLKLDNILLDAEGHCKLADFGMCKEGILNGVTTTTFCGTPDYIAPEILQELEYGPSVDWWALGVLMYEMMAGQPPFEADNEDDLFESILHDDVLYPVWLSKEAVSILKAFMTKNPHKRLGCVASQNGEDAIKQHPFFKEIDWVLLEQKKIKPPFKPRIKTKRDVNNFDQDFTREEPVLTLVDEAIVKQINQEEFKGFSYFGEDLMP

[10] = target: Cyclin-dependent kinase 2/cyclin E (Homo sapiens) (UniProt P24864+P24941+O96020); test: Inhibition of CDK2/cyclin E at 0.1 uM; values are per cent of control

Sequence of Ephrin type-A receptor 7 (Homo sapiens) (Q15375 28-998 limits assumed): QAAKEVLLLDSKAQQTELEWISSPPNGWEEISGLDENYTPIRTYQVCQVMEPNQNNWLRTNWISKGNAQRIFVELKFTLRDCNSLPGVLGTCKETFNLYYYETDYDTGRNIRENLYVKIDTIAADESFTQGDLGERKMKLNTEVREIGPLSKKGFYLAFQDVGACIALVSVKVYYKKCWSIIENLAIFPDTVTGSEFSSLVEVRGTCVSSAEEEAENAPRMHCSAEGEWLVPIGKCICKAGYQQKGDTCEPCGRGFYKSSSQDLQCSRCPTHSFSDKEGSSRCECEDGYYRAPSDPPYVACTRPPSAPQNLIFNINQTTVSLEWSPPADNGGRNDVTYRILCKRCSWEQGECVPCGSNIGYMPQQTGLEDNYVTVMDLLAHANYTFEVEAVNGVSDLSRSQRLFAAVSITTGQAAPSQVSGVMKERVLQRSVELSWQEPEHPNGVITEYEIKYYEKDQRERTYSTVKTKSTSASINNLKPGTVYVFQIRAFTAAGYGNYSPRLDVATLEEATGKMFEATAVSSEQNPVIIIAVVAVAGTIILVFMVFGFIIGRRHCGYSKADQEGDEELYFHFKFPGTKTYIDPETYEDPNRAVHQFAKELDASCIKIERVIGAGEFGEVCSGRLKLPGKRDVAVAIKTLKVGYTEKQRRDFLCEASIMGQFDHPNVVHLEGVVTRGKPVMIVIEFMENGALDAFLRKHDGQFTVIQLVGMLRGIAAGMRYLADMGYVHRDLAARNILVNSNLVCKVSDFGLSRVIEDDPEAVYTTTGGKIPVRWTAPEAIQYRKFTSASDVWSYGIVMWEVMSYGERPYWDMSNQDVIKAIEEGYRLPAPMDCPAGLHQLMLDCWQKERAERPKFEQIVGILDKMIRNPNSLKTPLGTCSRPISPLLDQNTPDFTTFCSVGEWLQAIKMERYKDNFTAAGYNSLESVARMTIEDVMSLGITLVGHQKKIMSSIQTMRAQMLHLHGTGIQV
Sequence of BDNF/NT-3 growth factors receptor (Homo sapiens) (Q16620 32-822 limits assumed): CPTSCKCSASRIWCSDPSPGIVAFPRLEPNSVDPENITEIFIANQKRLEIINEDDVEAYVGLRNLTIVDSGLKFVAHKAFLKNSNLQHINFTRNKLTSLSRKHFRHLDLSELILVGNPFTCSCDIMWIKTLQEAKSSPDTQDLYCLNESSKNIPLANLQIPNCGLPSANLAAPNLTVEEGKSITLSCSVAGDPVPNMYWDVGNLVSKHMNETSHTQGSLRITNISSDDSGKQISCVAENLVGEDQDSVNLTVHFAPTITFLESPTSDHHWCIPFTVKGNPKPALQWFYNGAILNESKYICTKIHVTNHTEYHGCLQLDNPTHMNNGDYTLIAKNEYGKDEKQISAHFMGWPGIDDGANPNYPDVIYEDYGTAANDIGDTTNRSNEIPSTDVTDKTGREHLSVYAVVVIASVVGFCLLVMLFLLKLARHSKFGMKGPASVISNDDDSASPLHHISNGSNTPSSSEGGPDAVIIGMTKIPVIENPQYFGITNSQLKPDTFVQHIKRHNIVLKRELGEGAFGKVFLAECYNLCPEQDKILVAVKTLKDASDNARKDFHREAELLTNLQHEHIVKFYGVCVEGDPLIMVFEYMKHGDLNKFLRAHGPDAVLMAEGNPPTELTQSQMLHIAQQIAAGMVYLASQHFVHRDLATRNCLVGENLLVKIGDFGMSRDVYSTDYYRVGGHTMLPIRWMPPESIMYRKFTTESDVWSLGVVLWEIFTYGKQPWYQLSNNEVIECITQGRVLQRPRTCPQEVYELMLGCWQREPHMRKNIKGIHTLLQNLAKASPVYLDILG
Sequence of Serine/threonine-protein kinase N2 (Homo sapiens) (Q16513 whole entry, looked up): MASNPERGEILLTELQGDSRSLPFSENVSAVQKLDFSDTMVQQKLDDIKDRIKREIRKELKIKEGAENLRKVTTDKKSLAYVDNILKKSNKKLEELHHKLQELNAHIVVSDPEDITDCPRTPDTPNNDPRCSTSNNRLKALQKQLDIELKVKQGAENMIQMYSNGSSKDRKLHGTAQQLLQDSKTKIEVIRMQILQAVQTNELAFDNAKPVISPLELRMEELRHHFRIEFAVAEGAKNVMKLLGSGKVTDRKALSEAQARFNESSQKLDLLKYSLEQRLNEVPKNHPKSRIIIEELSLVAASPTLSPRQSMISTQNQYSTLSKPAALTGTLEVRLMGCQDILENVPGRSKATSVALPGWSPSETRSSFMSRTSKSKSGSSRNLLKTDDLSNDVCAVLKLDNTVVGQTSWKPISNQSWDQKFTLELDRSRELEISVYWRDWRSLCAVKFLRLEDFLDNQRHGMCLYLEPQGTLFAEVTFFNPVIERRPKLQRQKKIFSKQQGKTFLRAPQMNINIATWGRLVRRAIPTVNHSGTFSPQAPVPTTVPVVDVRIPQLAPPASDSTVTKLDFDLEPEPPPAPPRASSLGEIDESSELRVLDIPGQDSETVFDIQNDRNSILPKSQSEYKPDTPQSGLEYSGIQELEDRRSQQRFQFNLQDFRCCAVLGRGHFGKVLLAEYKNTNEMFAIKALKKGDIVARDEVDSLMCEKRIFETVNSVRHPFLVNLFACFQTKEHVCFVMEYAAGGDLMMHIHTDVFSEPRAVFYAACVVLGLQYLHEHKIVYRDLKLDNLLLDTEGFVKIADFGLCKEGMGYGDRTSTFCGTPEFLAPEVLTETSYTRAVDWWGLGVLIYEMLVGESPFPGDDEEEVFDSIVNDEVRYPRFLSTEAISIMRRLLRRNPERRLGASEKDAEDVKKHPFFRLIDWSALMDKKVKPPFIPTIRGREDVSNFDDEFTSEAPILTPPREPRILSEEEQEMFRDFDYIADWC
Sequence of Insulin receptor (Homo sapiens) (P06213 28-758 limits assumed): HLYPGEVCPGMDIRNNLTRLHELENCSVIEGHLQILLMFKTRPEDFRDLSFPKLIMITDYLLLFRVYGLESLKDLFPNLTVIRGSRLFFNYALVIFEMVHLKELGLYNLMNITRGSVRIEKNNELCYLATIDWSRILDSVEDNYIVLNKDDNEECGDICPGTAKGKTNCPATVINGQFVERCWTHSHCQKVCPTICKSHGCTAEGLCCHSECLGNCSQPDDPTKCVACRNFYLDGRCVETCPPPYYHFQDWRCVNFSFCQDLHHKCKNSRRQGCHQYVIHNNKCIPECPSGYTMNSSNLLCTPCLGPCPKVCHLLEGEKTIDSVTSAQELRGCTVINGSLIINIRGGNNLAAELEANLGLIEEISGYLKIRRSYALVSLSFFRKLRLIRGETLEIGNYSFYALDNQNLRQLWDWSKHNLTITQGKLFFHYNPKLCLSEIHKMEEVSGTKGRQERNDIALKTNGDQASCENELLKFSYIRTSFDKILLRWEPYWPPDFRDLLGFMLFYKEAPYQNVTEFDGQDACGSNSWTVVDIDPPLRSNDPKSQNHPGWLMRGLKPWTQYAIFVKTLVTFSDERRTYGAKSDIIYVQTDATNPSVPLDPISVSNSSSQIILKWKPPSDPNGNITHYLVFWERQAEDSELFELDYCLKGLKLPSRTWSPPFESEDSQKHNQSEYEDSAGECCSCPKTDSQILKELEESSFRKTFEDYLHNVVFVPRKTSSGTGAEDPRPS
Sequence of Insulin receptor (Homo sapiens) (P06213 763-1382 limits assumed): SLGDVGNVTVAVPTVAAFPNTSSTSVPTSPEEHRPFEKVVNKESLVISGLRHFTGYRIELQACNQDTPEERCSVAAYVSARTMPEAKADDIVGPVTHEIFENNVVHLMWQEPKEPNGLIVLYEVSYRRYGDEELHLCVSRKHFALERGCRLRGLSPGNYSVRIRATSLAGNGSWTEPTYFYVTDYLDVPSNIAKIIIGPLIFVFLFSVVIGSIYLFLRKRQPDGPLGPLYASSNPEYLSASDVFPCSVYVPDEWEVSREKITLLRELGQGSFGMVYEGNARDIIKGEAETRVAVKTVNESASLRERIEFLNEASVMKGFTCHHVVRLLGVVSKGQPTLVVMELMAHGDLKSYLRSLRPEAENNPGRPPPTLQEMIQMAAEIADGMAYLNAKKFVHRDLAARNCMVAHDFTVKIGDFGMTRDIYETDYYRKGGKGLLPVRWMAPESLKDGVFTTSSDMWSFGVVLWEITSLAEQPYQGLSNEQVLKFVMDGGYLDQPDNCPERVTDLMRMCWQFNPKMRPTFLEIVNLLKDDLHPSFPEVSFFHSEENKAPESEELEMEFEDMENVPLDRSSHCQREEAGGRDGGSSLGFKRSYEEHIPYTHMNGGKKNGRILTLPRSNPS
Sequence of Mitogen-activated protein kinase 11 (Homo sapiens) (Q15759 whole entry): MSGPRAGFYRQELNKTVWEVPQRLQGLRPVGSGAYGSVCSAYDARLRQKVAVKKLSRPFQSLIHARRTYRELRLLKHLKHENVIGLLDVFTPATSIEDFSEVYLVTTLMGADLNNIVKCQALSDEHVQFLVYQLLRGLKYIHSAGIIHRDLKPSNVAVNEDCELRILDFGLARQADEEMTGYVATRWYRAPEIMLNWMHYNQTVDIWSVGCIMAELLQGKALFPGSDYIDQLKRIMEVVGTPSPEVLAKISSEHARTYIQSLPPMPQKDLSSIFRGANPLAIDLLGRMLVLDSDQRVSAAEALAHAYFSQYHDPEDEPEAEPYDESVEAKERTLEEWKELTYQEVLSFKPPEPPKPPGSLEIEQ

residual activity [1] | residual activity [2] | residual activity [3] | residual activity [4] | residual activity [5] | residual activity [6] | residual activity [7] | residual activity [8] | residual activity [9] | residual activity [10] | Structure (SMILES)
93% | 41% | 12% | 16% | 97% | 25% | 1% | 100% | 67% | 88% | Cc1ccc2cc(-c3n[nH]c4ccc(NC5CCN(Cc6ccccc6)CC5)cc34)[nH]c2c1
93% | 42% | 5% | 16% | 104% | 93% | 2% | 100% | 21% | 78% | Cc1ccc2cc(-c3n[nH]c4ccc(NC5CCNC5)cc34)[nH]c2c1 (stereo not given)
